Patent publication US9090600B2, “Fungicidal 4-substituted-3-{phenyl[(heterocyclylmethoxy)imino]methyl}-1,2,4-oxadizol-5(4H)-one derivatives” (BAYER INTELLECTUAL PROPERTY GMBH, priority 2011, dated 2015)
Marks after values point to notes of the source that are not given here.

Legend:
Phytophthora infestans = assay type: in vivo; settings: tomato plants, spray, 500 ppm, grading 5 days after contamination
Uromyces appendiculatus = experiment: In vivo test on Uromyces appendiculatus (brown rust of bean); settings: Saxa variety plants, spray, 500 ppm, grading 10 days after contamination
Experimental: (§1) The active ingredients tested are prepared by homogenization in a mixture of acetone/tween/DMSO, then diluted with water to obtain the desired active material.
[…] (Saxa variety) sown on 50/50 peat soil-pozzolana substrate in starter cups and grown at 24° C., are treated at the 2-leaf stage (9 cm tall) by spraying with the aqueous suspension described above.
(§2) Plants, used as controls, are treated with an aqueous solution not containing the active material.
(§3) After 24 hours, the plants are contaminated by spraying the leaves with an aqueous suspension of Uromyces appendiculatus spores (150.000 spores per ml). The spores are collected from a 10-day-old contaminated […] and are suspended in water containing 2.5 ml/l of tween 80 10%. The contaminated […] are incubated for 24 hours at 20° C. and at 100% relative humidity, and then for 10 days at 20° C. and at 70% relative humidity. Grading is carried out 10 days after the contamination, in comparison with the control plants.
(§4) Under these conditions, good (at least 70%) or total protection is observed at a dose of 500 ppm with the following compounds: […]

[1] = pH 2.7
Puccinia recondita = experiment: In vivo test on Puccinia recondita (brown rust); settings: wheat plants, spray, 500 ppm, grading 10 days after contamination
Experimental: as §1
Wheat plants (Scipion variety) sown on 50/50 peat soil-pozzolana substrate in starter cups and grown at 22° C. (12 h)/20° C. (12 h), are treated at the 1-leaf stage (10 cm tall) by spraying with the aqueous suspension described above.
as §3, with “Plants, used as controls, are treated with an aqueous solution not containing the active material. After” for “After”, “Puccinia recondite” for “Uromyces appendiculatus”, “(100.000” for “(150.000”
as §4

Plasmopara viticola = experiment: Plasmopara test (grapevines)/preventive; assay type: in vivo; settings: preventive spray, 10 ppm of active ingredient, evaluated 6 days after inoculation
Outline: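 Young grapevines sprayed preventively with compound formulated in acetone/dimethylacetamide with emulsifier, diluted in water, then inoculated with P. viticola spores after drying. Held 1 day at ~20 °C/100% RH, 4 days in greenhouse at ~21 °C/~90% RH, then misted for 1 day. Efficacy scored 6 days post-inoculation (0% = untreated control, 100% = no disease).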

[2] = test system: Mycosphaerella graminicola; experiment: In vivo test on Mycosphaerella graminicola (wheat leaf spot); settings: wheat plants, spray, 500 ppm, grading 21 to 28 days after contamination
Experimental: The active ingredients tested are prepared by homogenization in a mixture of acetone/tween/DMSO, then diluted with water to obtain the desired active material concentration.
Wheat plants (Scipion variety), sown on a 50/50 peat soil-pozzolana substrate in starter cups and grown at 22° C. (12 h)/20° C. (12 h), are treated at the 1-leaf stage (10 cm tall) by spraying with the aqueous suspension described above. Plants, used as controls, are treated with an aqueous solution not containing the active material.
After 24 hours, the plants are contaminated by spraying them with an aqueous suspension of cryopreserved Mycosphaerella graminicola spores (500.000 spores per ml). The contaminated wheat plants are incubated for 72 hours at 18° C. and at 100% relative humidity, and then for 21 to 28 days at 90% relative humidity.
Grading (% of efficacy) is carried out 21 to 28 days after the contamination, in comparison with the control plants.
as §4

[3] = Measurement of log P values by HPLC on reversed phase columns (EEC directive 79/831 Annex V.A8); settings: pH 2.7
Botrytis cinerea = experiment: In vivo test on Botrytis cinerea (grey mould); settings: gherkin plants, spray, 500 ppm, grading 4/5 days after contamination
Experimental: The active ingredients tested are prepared by homogenization in a mixture of acetone/Tween/DMSO, then diluted with water to obtain the desired active material
Gherkin plants (Vert petit de Paris variety), sown on a 50/50 peat soil-pozzolana substrate in starter cups and grown at 18-20° C., are treated at the cotyledon Z11 stage by spraying with the active ingredient prepared as described above.
Plants, used as controls, are treated with an aqueous solution not containing the active material. After 24 hours, the plants are contaminated by spraying them with an aqueous suspension of cryopreserved Botrytis cinerea spores (50.000 spores per ml) on upper surface of the leaves. The spores are suspended in a nutrient solution composed of: • 10 g/L of PDB; • 50 g/L of D-fructose; • 2 g/L of NH4NO3; • 1 g/L of KH2PO4.
The contaminated cucumber plants are settled for 4/5 days in a climatic room at 17° C. (day/night) and at 80% relative humidity.
Grading is carried out 4/5 days after the contamination, in comparison with the control plants.
as §4

Pyrenophora teres = experiment: In vivo test on Pyrenophora teres (barley net blotch); settings: barley plants, spray, 500 ppm, grading 12 days after contamination
Experimental: The active ingredients tested are prepared by homogenization in a mixture of acetone/Tween/DMSO, then diluted with water to obtain the desired active material concentration.
Barley plants (Plaisant variety), sown on a 50/50 peat soil-pozzolana substrate in starter cups and grown at 22° C. (12 h)/20° C. (12 h), are treated at the 1-leaf stage (10 cm tall) by spraying with the active ingredient prepared as described above.
as §2
After 24 hours, the plants are contaminated by spraying them with an aqueous suspension of Pyrenophora teres spores (12.000 spores per ml). The spores are collected from a 12-day-old culture.
The contaminated barley plants are incubated for 24 hours at about 20° C. and at 100% relative humidity, and then for 12 days at 80% relative humidity.
Grading is carried out 12 days after the contamination, in comparison with the control plants.
Under these conditions, good (at least 70%) is observed at a dose of 500 ppm with the following compounds: […]

C#CCCOC(=O)Nc1cccc(CO/N=C(/c2cccc(OC)c2)c2noc(=O)n2C)n1 [Example 228]
Eff. % (Phytophthora infestans): 100% | Eff. % (Uromyces appendiculatus): 70% | LogP [1]: 3.33 [a] | Eff. % (Puccinia recondita): 81% | Eff. % (Plasmopara viticola): 93%

CC(Oc1ccc(Cl)cc1)C(=O)Nc1nc(CO/N=C(/c2ccccc2)c2noc(=O)n2C)cs1 (centres unmarked) [Example 276]
Eff. % (Phytophthora infestans): 98% | Eff. % (Uromyces appendiculatus): 89% | LogP [1]: 4.07 [a]

CC(Oc1ccc(Br)cc1)C(=O)Nc1nc(CO/N=C(/c2ccccc2)c2noc(=O)n2C)cs1 (centres unmarked) [Example 216]
Eff. % (Phytophthora infestans): 95% | Eff. % (Uromyces appendiculatus): 71% | LogP [1]: 4.17 [a]

Cn1c(/C(=N\OCc2cccc(NC(=O)OC(C)(C)C)n2)c2cccc(F)c2)noc1=O [Example 206]
Eff. % (Phytophthora infestans): 100% | Eff. % (Uromyces appendiculatus): 91% | LogP [1]: 4.09 [a] | Eff. % (Plasmopara viticola): 81%

CCCCCOC(=O)Nc1cccc(CO/N=C(/c2cccc(F)c2)c2noc(=O)n2C)n1 [Example 406]
Eff. % [2]: 79% | Eff. % (Phytophthora infestans): 94% | Eff. % (Uromyces appendiculatus): 79% | LogP [1]: 4.53 [a] | Eff. % (Puccinia recondita): 81% | Eff. % (Plasmopara viticola): 79%

COc1ccc(/C(=N/OCc2cccc(NC(=O)OC(C)CC(C)C)n2)c2noc(=O)n2C)cc1 (centres unmarked) [Example 185]
Eff. % (Phytophthora infestans): 83% | Eff. % (Uromyces appendiculatus): 75% | LogP [1]: 4.72 [a] | Eff. % (Puccinia recondita): 78%

CC(Nc1cccc(CO/N=C(/c2ccccc2)c2noc(=O)n2C)n1)c1ccccc1 (centres unmarked) [Example 43, 4-methyl-3-{(Z)-phenyl[({6-[(1-phenylethyl)amino]pyridin-2-yl}methoxy)imino]methyl}-1,2,4-oxadiazol-5(4H)-one]
Eff. % [2]: 91% | chromatographic logP [3]: 2.86 | Eff. % (Phytophthora infestans): 100% | Eff. % (Uromyces appendiculatus): 75% | Eff. % (Puccinia recondita): 94%

CCn1c(C(=NOCc2cccc(NC(=O)CC(C)C)n2)c2ccccc2)noc1=O [Example 280]
Eff. % (Phytophthora infestans): 100% | Eff. % (Uromyces appendiculatus): 83% | LogP [1]: 3.7 [a] | Eff. % (Puccinia recondita): 98%

Cn1c(/C(=N\OCc2csc(NC(=O)c3ccc(Br)cc3)n2)c2ccccc2)noc1=O [Example 373]
Eff. % (Botrytis cinerea): 85% | Eff. % (Phytophthora infestans): 97% | LogP [1]: 4.01 [a]

CC(C)C=CCCCCC(=O)Nc1cccc(CON=C(c2ccccc2)c2noc(=O)n2C)n1 [Example 268]
Eff. % (Phytophthora infestans): 100% | LogP [1]: 5.06 [a] | Eff. % (Pyrenophora teres): 96%

Cn1c(/C(=N\OCc2cccc(NC(=O)CCC3CC3)n2)c2ccccc2)noc1=O [Example 62]
Eff. % (Phytophthora infestans): 99% | Eff. % (Uromyces appendiculatus): 71% | LogP [1]: 3.51 [a]

COc1cccc(C(=NOCc2cccc(N)n2)c2noc(=O)[nH]2)c1 (mixture of isomers) [Example 354]
Eff. % (Botrytis cinerea): 71% | LogP [1]: 1.29 [a]

CCCCCCOC(=O)Nc1nc(CO/N=C(/c2ccccc2)c2noc(=O)n2C)cs1 [Example 53]
Eff. % (Phytophthora infestans): 73% | LogP [1]: 4.51 [a] | Eff. % (Pyrenophora teres): 70%

Cc1cccc(/C(=N/OCc2cccc(NC(=O)OCc3ccccc3)n2)c2noc(=O)n2C)c1 [Example 117]
Eff. % [2]: 90% | LogP [1]: 4.31 [a] | Eff. % (Pyrenophora teres): 79%

Cn1c(/C(=N\OCc2cccc(NC(=O)c3ccc(Cl)cc3Cl)n2)c2ccccc2)noc1=O [Example 332]
Eff. % (Botrytis cinerea): 71% | Eff. % (Phytophthora infestans): 85% | LogP [1]: 4.14 [a]

Cn1c(C(=NOCc2cccc(NC(=O)Cc3cc(F)ccc3F)n2)c2ccccc2)noc1=O [Example 255]
Eff. % [2]: 88% | Eff. % (Phytophthora infestans): 98% | LogP [1]: 3.62 [a] | Eff. % (Pyrenophora teres): 70%

Cc1cccc(C(=NOCc2cccc(NC(=O)OC3CCCCC3)n2)c2noc(=O)n2C)c1 [Example 250]
Eff. % [2]: 96% | Eff. % (Phytophthora infestans): 80% | LogP [1]: 4.82 [a] | Eff. % (Pyrenophora teres): 79%

Cn1c(/C(=N\OCc2cccc(NC(=O)COCc3ccccc3)n2)c2ccccc2)noc1=O [Example 278]
Eff. % (Botrytis cinerea): 78% | Eff. % (Phytophthora infestans): 100% | LogP [1]: 3.87 [a]

CCOCCOC(=O)Nc1cccc(CO/N=C(/c2ccccc2)c2noc(=O)n2C)n1 [Example 400]
Eff. % (Phytophthora infestans): 100% | Eff. % (Uromyces appendiculatus): 94% | LogP [1]: 3.17 [a]

CCCCOC(=O)Nc1cccc(CO/N=C(/c2cccc(F)c2)c2noc(=O)n2C)n1 [Example 295]
Eff. % (Phytophthora infestans): 97% | Eff. % (Uromyces appendiculatus): 70% | LogP [1]: 4.14 [a] | Eff. % (Plasmopara viticola): 89%

CCCCC(=O)Nc1cccc(CO/N=C(/c2cccc(F)c2)c2noc(=O)n2C)n1 [Example 140]
Eff. % (Phytophthora infestans): 100% | Eff. % (Uromyces appendiculatus): 73% | LogP [1]: 3.61 [a] | Eff. % (Puccinia recondita): 86% | Eff. % (Plasmopara viticola): 85%

C=CCCC(=O)Nc1cccc(CON=C(c2ccccc2)c2noc(=O)n2C)n1 [Example 256]
Eff. % (Phytophthora infestans): 100% | LogP [1]: 3.25 [a] | Eff. % (Pyrenophora teres): 90%

Cn1c(/C(=N\OCc2cccc(NC(=O)CCC3CCCC3)n2)c2ccccc2)noc1=O [Example 84]
Eff. % (Phytophthora infestans): 100% | LogP [1]: 4.36 [a] | Eff. % (Pyrenophora teres): 70%

Cc1ccc(C(=O)Nc2nc(CO/N=C(/c3ccccc3)c3noc(=O)n3C)cs2)cc1 [Example 180]
Eff. % (Botrytis cinerea): 83% | Eff. % (Phytophthora infestans): 98% | LogP [1]: 3.76 [a] | Eff. % (Plasmopara viticola): 95%

CCC(=O)Nc1cccc(CO/N=C(/c2ccccc2)c2noc(=O)n2C)n1 [Example 71]
Eff. % [2]: 88% | Eff. % (Phytophthora infestans): 99% | LogP [1]: 2.77 [a] | Eff. % (Pyrenophora teres): 70%

Cn1c(C(=NOCc2cccc(NC(=O)OCCc3ccccc3)n2)c2ccc(F)cc2)noc1=O [Example 258]
Eff. % (Phytophthora infestans): 89% | Eff. % (Uromyces appendiculatus): 93% | LogP [1]: 4.24 [a] | Eff. % (Puccinia recondita): 81%

COCC(=O)Nc1cccc(CO/N=C(/c2ccccc2)c2noc(=O)n2C)n1 [Example 379]
Eff. % (Phytophthora infestans): 100% | LogP [1]: 2.73 [a] | Eff. % (Pyrenophora teres): 100%

CC(Oc1ccccc1Br)C(=O)Nc1nc(CO/N=C(/c2ccccc2)c2noc(=O)n2C)cs1 (centres unmarked) [Example 113]
Eff. % (Phytophthora infestans): 90% | Eff. % (Uromyces appendiculatus): 79% | LogP [1]: 4.2 [a]
